How the values were obtained:
[1] = tested on: mitochondrial glutathione in HeLa cells; assay: Real-time imaging of living cells loaded with MitoFreSH-tracer (confocal, F510/F580 ratio); assay type: cell-based
Description: 1-5. Real-Time Imaging of Living Cells
HeLa cells were cultured in DMEM (containing 10% heat-inactivated FBS (Hyclone), 100 U/ml of penicillin, 100 μg/ml of streptomycin sulfate and 2 mM glutamine aid free of phenol red). HeLa cells were seeded in 35 mm cover glass bottom dishes (SPL Life Sciences), and then cultured under the conditions of 37° C. and 5% CO2 for foe indicated time. Before observation using a fluorescence microscope, the HeLa cells were incubated with 2 mL of a medium containing 10 μM of the FreSH-tracer-derived compound for 0.5 to 1.5 hours. After washing twice with PBS, real-time images of the cells were acquired using a Nikon A1 laser scanning confocal microscope. […] The FreSH-tracer-derived compound was excited with laser beams at 403 nm and 488 nm, and the fluorescence of the tracer-derived compound was detected through filters with 500-550 nm and 570-620 nm band intervals, respectively. Using NIS-Elements AR software, the experimental data were analyzed and the ratio of fluorescence was imaged (see FIGS. 4 and 5).
The present inventors have studied the applicability of the MitoFreSH-tracer to examination of changes in mitochondrial glutathione levels in living cells. […] The sensor fluorescence intensity ratio calculated from images of the living cells was reduced by treatment with diamide (FIGS. 4B and 4C). […]

[2] = tested on: glutathione in the Golgi apparatus of HeLa cells; assay: High-throughput cell imaging of cells loaded with GolgiFreSH-tracer; assay type: cell-based
Description: 1-6. High-Throughput Cell Imaging
HeLa cells were cultured in DMEM (containing 10% heat-inactivated FBS (Hyclone), 100 U/ml of penicillin, 100 μg/ml of streptomycin sulfite and 2 mM glutamine and free of phenol red). HeLa cells were seeded in Greiner 96-well dishes (Sigma-Aldrich), and then cultured under the conditions of 37° C. and 5% CO2 for the indicated time. Before observation using a fluorescence microscope, the HeLa cells were incubated with a medium containing 10 μM of the GolgiFreSH-tracer for 0.5 to 1.5 hours. After washing twice with Hank's balanced salt solution, real-time images of the cells were acquired using an Operetta High-Content Imaging System (PerkinElmer). The imaging test was performed while the cells w ere incubated under the conditions of 37° C. and 5% CO2 in a chamber mounted in the microscope. The GolgiFreSH-tracer was excited with LED light at 410-430 nm and 490-510 nm, and the fluorescence of the tracer was detected through filters with 460-540 nm and 560-630 nm band intervals, respectively. BODIPY TR C5ceramide was excited with LED light at 560-580 nm, and the fluorescence thereof was detected through filters with 590-640 nm band intervals. Using the Harmony software, the experimental data were analyzed (see FIGS. 4, 5 and 8). […]

Row | Compound | sensor fluorescence intensity ratio (F510/F580) of MitoFreSH-tracer in living cells ([1]; HeLa cells loaded with MitoFreSH-tracer, 0.5 mM diamide) | fluorescence intensity ratio of GolgiFreSH-tracer in living cells ([2]; living cells treated with various concentrations of diamide) | sensor fluorescence intensity ratio of GolgiFreSH-tracer in living cells ([2]; sensor-loaded living cells, 1 mM diamide) | fluorescence intensity ratio of MitoFreSH-tracer in living cells ([1]; cells treated with antimycin A for 75 minutes, various concentrations)
1 | CN(C)C(=O)/N=N/C(=O)N(C)C [diamide, Diamide] | reduced | decreased depending on the concentration | reduced | –
2 | Antimycin A | – | – | – | decreased depending on the concentration

— US11472825B2, “Real-time fluorescence imaging sensor for measuring glutathione in organelle and preparation method therefor” (CELL2IN, INC., priority 2017, dated 2022)
